Tested on: vAtEGp64S966 baculovirus (spike protein) entry into Vero E6 cells
Type: cell-based

CCC(=O)c1ccc2c(c1)N(CC(C)N(C)C)c1ccccc1S2 (stereo not drawn) [compound 0649, Propiomazine]
blocking the entry of baculovirus into Vero E6 cells: very effective in blocking the entry

CSc1ccc2c(c1)N(CCC1CCCCN1C)c1ccccc1S2 (stereo not drawn) [compound 2025, Thioridazine]
blocking the entry of baculovirus into Vero E6 cells: very effective in blocking the entry

CN1CCN(CCCN2c3ccccc3Sc3ccc(Cl)cc32)CC1 [compound 0643, Prochlorperazine]
blocking the entry of baculovirus into Vero E6 cells: very effective in blocking the entry

From patent US7527967B2, “Recombinant baculovirus and virus-like particle” (priority 2003, dated 2009)
